Test results from article PMC9570838, “JND4135, a New Type II TRK Inhibitor, Overcomes TRK xDFG and Other Mutation Resistance In Vitro and In Vivo” (Molecules, 2022).
Read-outs that look alike come from different tables or passages of the source.

What was measured:
BaF3 EML4-TRKC = assay: BaF3 cell proliferation, CCK-8 assay; details: Mus musculus, BaF3, 72 h, read-out: IC50 (nM ± SD) WT EML4-TRKC
Protocol: (§1) Murine BaF3 cells were purchased from JRCB cell bank. The BaF3 cell lines, which stably express natively-fused TRKA/B/C or various point mutants, were self-established by following previously described procedures. Briefly, NTRK genes were totally synthesized and cloned into pCDNA3.1(+) vectors (Invitrogen, Carlsbad, CA, USA). […] Stable strains were established by selection of cells 2 weeks post-transfection with 800 μg/mL G418 (Merck, Whitehouse Station, NJ) and further selection after the withdrawal of interleukin-3 (IL-3, R&D) for 2 weeks. All of BaF3 stable cell lines were verified by DNA sequencing, protein expression and anti-proliferation activity against positive drugs. […] All cells were grown at 37 °C in a humidified 5% CO2 atmosphere.
(§2) Cells were placed in 96-well plates (5000~8000/well) in complete medium. […] IC50 values were calculated by concentration-response curve fitting using GraphPad Prism 5.0 software. Each IC50 value is expressed as mean ± SD.

Parental BaF3 (+IL3) = assay: BaF3 cell proliferation, CCK-8 assay; details: Mus musculus, BaF3, 72 h, read-out: IC50 (nM ± SD) Parental BaF3 (+IL3)
Protocol: as §1, §2

BaF3 ETV6-TRKB-F633L = assay: BaF3 cell proliferation, CCK-8 assay; details: Mus musculus, BaF3, 72 h, read-out: IC50 (nM ± SD) Gatekeeper ETV6-TRKB-F633L
Protocol: as §1, §2

BaF3 CD74-TRKA = assay: BaF3 cell proliferation, CCK-8 assay; details: Mus musculus, BaF3, 72 h, read-out: IC50 (nM ± SD) WT CD74-TRKA
Protocol: as §1, §2

BaF3 MPRIP-TRKA = assay: BaF3 cell proliferation, CCK-8 assay; details: read-out: IC50 (nM ± SD) WT MPRIP-TRKA
Protocol: as §1, §2

BaF3 ETV6-TRKC = assay: BaF3 cell proliferation, CCK-8 assay; details: Mus musculus, BaF3, 72 h, read-out: IC50 (nM ± SD) WT ETV6-TRKC
Protocol: as §1, §2

BaF3 ETV6-TRKC-G623R = assay: BaF3 cell proliferation, CCK-8 assay; details: Mus musculus, BaF3, 72 h, read-out: IC50 (nM ± SD) Solvent Front ETV6-TRKC-G623R
Protocol: as §1, §2

BaF3 ETV6-TRKC-F617L = assay: BaF3 cell proliferation, CCK-8 assay; details: Mus musculus, BaF3, 72 h, read-out: IC50 (nM ± SD) Gatekeeper ETV6-TRKC-F617L
Protocol: as §1, §2

BaF3 ETV6-TRKB-G709C = assay: BaF3 cell proliferation, CCK-8 assay; details: Mus musculus, BaF3, 72 h, read-out: IC50 (nM ± SD) xDFG ETV6-TRKB-G709C
Protocol: as §1, §2

BaF3 QKI-TRKB = assay: BaF3 cell proliferation, CCK-8 assay; details: Mus musculus, BaF3, 72 h, read-out: IC50 (nM ± SD) WT QKI-TRKB
Protocol: as §1, §2

BaF3 ETV6-TRKB = assay: BaF3 cell proliferation, CCK-8 assay; details: Mus musculus, BaF3, 72 h, read-out: IC50 (nM ± SD) WT ETV6-TRKB
Protocol: as §1, §2

BaF3 ETV6-TRKB-G639R = assay: BaF3 cell proliferation, CCK-8 assay; details: Mus musculus, BaF3, 72 h, read-out: IC50 (nM ± SD) Solvent Front ETV6-TRKB-G639R
Protocol: as §1, §2

BaF3 CD74-TRKA-F589L = assay: BaF3 cell proliferation, CCK-8 assay; details: Mus musculus, BaF3, 72 h, read-out: IC50 (nM ± SD) Gatekeeper CD74-TRKA-F589L
Protocol: as §1, §2

BaF3 CD74-TRKA-G667C = assay: BaF3 cell proliferation, CCK-8 assay; details: Mus musculus, BaF3, 72 h, read-out: IC50 (nM ± SD) xDFG CD74-TRKA-G667C
Protocol: as §1, §2

BaF3 ETV6-TRKC-G696C = assay: BaF3 cell proliferation, CCK-8 assay; details: Mus musculus, BaF3, 72 h, read-out: IC50 (nM ± SD) xDFG ETV6-TRKC-G696C
Protocol: as §1, §2

[1] = tested on: BaF3-CD74-TRKA-G667C cells; assay: Apoptosis by flow cytometry (Annexin V / 7-AAD); format: cell-based, Murine; details: even at a concentration of 50 nM
Protocol: For analysis of the cell cycle, cells were harvested and washed twice with PBS after treatment for 24 h with indicated drugs or DMSO. […] The cells were then analyzed on a Guava easyCyte flow cytometer (Merck, Whitehouse Station, NJ, USA). For analysis of cell apoptosis, cells were harvested and washed twice with ice-cold PBS after treatment for 48 h with indicated drugs or DMSO. […] Finally, 400 μL of a 1 × BD binding buffer solution was replenished. The cells were then analyzed on a Guava easyCyte flow cytometer (Merck, Whitehouse Station, NJ, USA).

[2] = tested on: BaF3 cells with gatekeeper mutations (TRKA^F589L, TRKB^F663L, TRKC^F617L); assay: BaF3 cell proliferation, summary over gatekeeper lines; details: Mus musculus, BaF3, read-out: IC50 in cells with gatekeeper mutations
Protocol: as §1, §2

BaF3 CD74-TRKA-G595R = assay: BaF3 cell proliferation, CCK-8 assay; details: Mus musculus, BaF3, 72 h, read-out: IC50 (nM ± SD) Solvent Front CD74-TRKA-G595R
Protocol: as §1, §2

[3] = tested on: TRKs-xDGF mutants TRKA-G667C, TRKB-G709C and TRKC-G696C in stable BaF3 models; assay: Western blot of xDFG mutant TRK signal pathway (Figure S2); format: cell-based, Murine; details: even at 200 nM, 6 h
Protocol: Cells were treated with various concentrations of each tested compound for a designated time. Then cells were lysed using 1 × SDS sample lysis buffer (CST recommended) with protease and phosphatase inhibitors. […] The films were blocked with 5% fat-free milk in TBS solution containing 0.5% Tween-20 for 4 h at room temperature, then incubated with the corresponding primary antibody (1:1000–1:200) overnight at 4 °C. After washing with TBST, HRP-conjugated secondary antibody was incubated for 2 h. The protein signals were visualized by ECL Western Blotting Detection Kit (Thermo Scientific, Waltham, MA, USA), and detected with Amersham Imager 600 system (GE, Boston, MA, USA).

[4] = tested on: BaF3 cells with solvent front mutations (TRKA^G595R, TRKB^G639R, TRKC^G623R); assay: BaF3 cell proliferation, summary over solvent front lines; details: Mus musculus, BaF3, read-out: IC50 range in cells with solvent front mutations
Protocol: as §1, §2

TRKA^G667C mutant = assay: Multi-target kinase inhibitors in BaF3 cell proliferation assays (Table S3); format: cell-based, Murine
[5] = tested on: wild-type TRKA/B/C or solvent-front mutations; assay: as above; format: cell-based, Murine

IC50 (BaF3 EML4-TRKC)	IC50 (BaF3 ETV6-TRKB-F633L)	IC50 (BaF3 CD74-TRKA)	IC50 (BaF3 MPRIP-TRKA; Mus musculus, BaF3, 72 h)	IC50 (BaF3 ETV6-TRKC)	IC50 (BaF3 ETV6-TRKC-G623R)	IC50 (BaF3 ETV6-TRKC-F617L)	IC50 (BaF3 ETV6-TRKB-G709C)	IC50 (BaF3 QKI-TRKB)	IC50 (BaF3 ETV6-TRKB)	IC50 (BaF3 ETV6-TRKB-G639R)	IC50 (BaF3 CD74-TRKA-F589L)	IC50 (BaF3 CD74-TRKA-G667C)	IC50 (BaF3 ETV6-TRKC-G696C)	IC50 (BaF3 CD74-TRKA-G595R)	Compound	IC50 (Parental BaF3 (+IL3))	effect on cell cycle or apoptosis [1]	inhibition of the activation of TRKs-xDGF mutants [3]	activity against TRKA^G667C mutant (TRKA^G667C mutant)	activity against wild-type TRKA/B/C or solvent-front mutations [5]	also measured
5.2 ± 1.6 nM	13 ± 3.6 nM	4.4 ± 1 nM	1.6 ± 0.4 nM	7.8 ± 4.2 nM	617 ± 69.8 nM	4.6 ± 2.8 nM	285 ± 92.4 nM	4.8 ± 1.6 nM	8 ± 3.1 nM	529 ± 130 nM	2.1 ± 0.3 nM	33.2 ± 3.2 nM	124 ± 60.4 nM	–	CN1CCN(c2ccc(C(=O)Nc3n[nH]c4ccc(Cc5cc(F)cc(F)c5)cc34)c(NC3CCOCC3)c2)CC1 [Entrectinib]	2340 ± 202 nM	–	–	–	–	–
21.7 ± 6.9 nM	1400 ± 214 nM	8 ± 0.8 nM	4.8 ± 1.2 nM	11.2 ± 2.8 nM	1270 ± 165 nM	513 ± 156 nM	1630 ± 821 nM	11.4 ± 4.2 nM	24 ± 4.2 nM	1900 ± 778 nM	423 ± 92.6 nM	313 ± 48.5 nM	769 ± 325 nM	1110 ± 251 nM	O=C(Nc1cnn2ccc(N3CCC[C@@H]3c3cc(F)ccc3F)nc12)N1CC[C@H](O)C1 [Larotrectinib]	> 10000 nM	little effect	limited inhibition	–	–	IC50 [2]: > 423 nM
2.7 ± 1.6 nM	4.9 ± 2.2 nM	–	–	2.1 ± 0.9 nM	14.6 ± 4.7 nM	2.1 ± 1.1 nM	89.7 ± 38.8 nM	0.8 ± 0.7 nM	2.3 ± 0.5 nM	–	–	–	42.9 ± 33.6 nM	–	C[C@H]1CNC(=O)c2cnn3ccc(nc23)N[C@H](C)c2cc(F)ccc2O1 [Repotrectinib]	906 ± 69 nM	–	–	–	–	IC50 (BaF3 MPRIP-TRKA; CCK-8, 72 h): 1.1 ± 0.2 nM
2.1 ± 0.2 nM	55.8 ± 10.8 nM	2.5 ± 0.2 nM	1.1 ± 0.4 nM	1.7 ± 1.1 nM	9.6 ± 1.2 nM	20.8 ± 7.9 nM	168 ± 73 nM	1.5 ± 0.4 nM	4.9 ± 1.4 nM	11.4 ± 2.2 nM	17.3 ± 2.2 nM	66.3 ± 13 nM	98.4 ± 55 nM	13.6 ± 3.3 nM	C[C@@H]1CCc2ncc(F)cc2[C@H]2CCCN2c2ccn3ncc(c3n2)C(=O)N1 [Selitrectinib]	> 10000 nM	little effect	limited inhibition	–	–	IC50 [4]: 9.4 to 33.7 nM

Further lines, the compound ahead of its results:

Compound	IC50 (BaF3 EML4-TRKC)	IC50 (BaF3 ETV6-TRKB-F633L)	IC50 (BaF3 CD74-TRKA)	IC50 (BaF3 MPRIP-TRKA; Mus musculus, BaF3, 72 h)	IC50 (BaF3 ETV6-TRKC)	IC50 (BaF3 ETV6-TRKC-G623R)	IC50 (BaF3 ETV6-TRKC-F617L)	IC50 (BaF3 ETV6-TRKB-G709C)	IC50 (BaF3 QKI-TRKB)	IC50 (BaF3 ETV6-TRKB)	IC50 (BaF3 ETV6-TRKB-G639R)	IC50 (BaF3 CD74-TRKA-F589L)	IC50 (BaF3 CD74-TRKA-G667C)	IC50 (BaF3 ETV6-TRKC-G696C)	IC50 (BaF3 CD74-TRKA-G595R)	IC50 (Parental BaF3 (+IL3))	effect on cell cycle or apoptosis [1]	inhibition of the activation of TRKs-xDGF mutants [3]	activity against TRKA^G667C mutant (TRKA^G667C mutant)	activity against wild-type TRKA/B/C or solvent-front mutations [5]	also measured
COc1cc2nccc(Oc3ccc(NC(=O)C4(C(=O)Nc5ccc(F)cc5)CC4)cc3)c2cc1OC [cabozantinib]	–	–	–	–	–	–	–	–	–	–	–	–	–	–	–	–	–	–	good activity	weak activity	–
Cc1ccc(C(=O)Nc2ccc(CN3CCN(C)CC3)c(C(F)(F)F)c2)cc1C#Cc1cnc2cccnn12 [ponatinib]	–	–	–	–	–	–	–	–	–	–	–	–	–	–	–	–	–	–	good activity	weak activity	–
